# How the values were obtained:
# Experiment in all cases: cells
# A204 = assay type: functional, cell-based, Homo sapiens; conditions: Homo sapiens, A204;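 also: growth inhibition of human A204 cells, read out with a cell viability assay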
# Description: SANGER: Inhibition of human A204 cell growth in a cell viability assay.
# CGTH-W-1 = assay type: functional, cell-based, Homo sapiens; conditions: Homo sapiens, CGTH-W-1;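 also: growth inhibition of human CGTH-W-1 cells measured by cell viability assay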
# Description: SANGER: Inhibition of human CGTH-W-1 cell growth in a cell viability assay.
# DJM-1 = assay type: functional, cell-based, Homo sapiens; conditions: Homo sapiens, DJM-1;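 also: growth inhibition of human DJM-1 cells, read out by a cell viability assay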
# Description: SANGER: Inhibition of human DJM-1 cell growth in a cell viability assay.
# COR-L88 = assay type: functional, cell-based; conditions: Homo sapiens;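 also: growth inhibition of COR-L88 cells, read out with a cell viability assay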
# Description: SANGER: Inhibition of human COR-L88 cell growth in a cell viability assay.
# CTB-1 = assay type: functional, cell-based; conditions: Homo sapiens
# Description: SANGER: Inhibition of human CTB-1 cell growth in a cell viability assay.
# SK-PN-DW = assay type: functional, cell-based; conditions: Homo sapiens;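 also: growth inhibition measured with a viability assay on these cells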
# Description: SANGER: Inhibition of human SK-PN-DW cell growth in a cell viability assay.
# GAK = assay type: functional, cell-based, Homo sapiens; conditions: Homo sapiens, GAK;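 also: cell growth inhibition read out by a cell viability assay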
# Description: SANGER: Inhibition of human GAK cell growth in a cell viability assay.
# HSC-2 = assay type: functional, cell-based, Homo sapiens; conditions: Homo sapiens, HSC-2;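 also: growth inhibition of human HSC-2 cells, read out by a cell viability assay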
# Description: SANGER: Inhibition of human HSC-2 cell growth in a cell viability assay.
# PANC-03-27 = assay type: functional, cell-based, Homo sapiens; conditions: Homo sapiens, PANC-03-27
# Description: SANGER: Inhibition of human PANC-03-27 cell growth in a cell viability assay.
# J82 = assay type: functional, cell-based; conditions: Homo sapiens;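 also: growth inhibition of J82 cells, read out with a cell viability assay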
# Description: SANGER: Inhibition of human J82 cell growth in a cell viability assay.
# HT-29 = assay type: functional, cell-based, Homo sapiens; conditions: Homo sapiens, HT-29;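 also: growth inhibition of human HT-29 cells, read out by a cell viability assay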
# Description: SANGER: Inhibition of human HT-29 cell growth in a cell viability assay.
# RPMI-8866 = assay type: functional, cell-based; conditions: Homo sapiens
# Description: SANGER: Inhibition of human RPMI-8866 cell growth in a cell viability assay.
# Calu-6 = assay type: functional, cell-based, Homo sapiens; conditions: Homo sapiens, Calu-6;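 also: growth of human Calu-6 cells, read out by a cell viability assay, IC50 marking inhibition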
# Description: SANGER: Inhibition of human Calu-6 cell growth in a cell viability assay.
# KYSE-180 = assay type: functional, cell-based, Homo sapiens; conditions: Homo sapiens, KYSE-180;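 also: growth inhibition of KYSE-180 cells, read out with a cell viability assay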
# Description: SANGER: Inhibition of human KYSE-180 cell growth in a cell viability assay.
# NB13 = assay type: functional, cell-based, Homo sapiens; conditions: Homo sapiens, NB13;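 also: cell viability readout measuring growth inhibition of human NB13 cells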
# Description: SANGER: Inhibition of human NB13 cell growth in a cell viability assay.
# COLO-792 = assay type: functional, cell-based, Homo sapiens; conditions: Homo sapiens, COLO-792
# Description: SANGER: Inhibition of human COLO-792 cell growth in a cell viability assay.
# J-RT3-T3-5 = assay type: functional, cell-based; conditions: Homo sapiens;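 also: cell viability assay measuring growth inhibition of human J-RT3-T3-5 cells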
# Description: SANGER: Inhibition of human J-RT3-T3-5 cell growth in a cell viability assay.
# TE-9 = assay type: functional, cell-based, Homo sapiens; conditions: Homo sapiens, TE-9;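 also: cell growth inhibition, measured with a cell viability readout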
# Description: SANGER: Inhibition of human TE-9 cell growth in a cell viability assay.
# LU-99A = assay type: functional, cell-based, Homo sapiens; conditions: Homo sapiens, LU-99A;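 also: growth inhibition of LU-99A cells, read out with a cell viability assay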
# Description: SANGER: Inhibition of human LU-99A cell growth in a cell viability assay.
# D-502MG = assay type: functional, cell-based, Homo sapiens; conditions: Homo sapiens, D-502MG
# Description: SANGER: Inhibition of human D-502MG cell growth in a cell viability assay.
# BHT-101 = assay type: functional, cell-based, Homo sapiens; conditions: Homo sapiens, BHT-101
# Description: SANGER: Inhibition of human BHT-101 cell growth in a cell viability assay.
# KNS-42 = assay type: functional, cell-based, Homo sapiens; conditions: Homo sapiens, KNS-42;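 also: growth inhibition of KNS-42 cells, read out with a cell viability assay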
# Description: SANGER: Inhibition of human KNS-42 cell growth in a cell viability assay.
# SK-MEL-28 = assay type: functional, cell-based; conditions: Homo sapiens;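 also: growth inhibition of human SK-MEL-28 cells, read out with a cell viability assay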
# Description: SANGER: Inhibition of human SK-MEL-28 cell growth in a cell viability assay.
# COLO-678 = assay type: functional, cell-based, Homo sapiens; conditions: Homo sapiens, COLO-678
# Description: SANGER: Inhibition of human COLO-678 cell growth in a cell viability assay.
# SHP77 = assay type: functional, cell-based, Homo sapiens, SHP-77; conditions: Homo sapiens, SHP77;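 also: growth inhibition of human SHP-77 cells measured by a cell viability assay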
# Description: SANGER: Inhibition of human SHP-77 cell growth in a cell viability assay.
# CP50-MEL-B = assay type: functional, cell-based, Homo sapiens; conditions: Homo sapiens, CP50-MEL-B;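 also: growth inhibition of the human cell line, measured with a cell viability read-out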
# Description: SANGER: Inhibition of human CP50-MEL-B cell growth in a cell viability assay.
# YKG-1 = assay type: functional, cell-based, Homo sapiens; conditions: Homo sapiens, YKG-1;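 also: cell growth inhibition, read out with a viability assay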
# Description: SANGER: Inhibition of human YKG-1 cell growth in a cell viability assay.
# TK-10 = assay type: functional, cell-based, Homo sapiens; conditions: Homo sapiens, TK-10;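 also: growth inhibition of TK-10 cells, read out in a cell viability assay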
# Description: SANGER: Inhibition of human TK10 cell growth in a cell viability assay.
# NCI-H1623 = assay type: functional, cell-based, Homo sapiens; conditions: Homo sapiens, NCI-H1623;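 also: cell viability assay used as the read-out for growth inhibition of NCI-H1623 cells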
# Description: SANGER: Inhibition of human NCI-H1623 cell growth in a cell viability assay.
# COLO-680N = assay type: functional, cell-based, Homo sapiens; conditions: Homo sapiens, COLO-680N;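 also: cell viability assay used to measure inhibition of COLO-680N cell growth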
# Description: SANGER: Inhibition of human COLO-680N cell growth in a cell viability assay.
# MHH-ES-1 = assay type: functional, cell-based, Homo sapiens; conditions: Homo sapiens, MHH-ES-1;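 also: cell growth inhibition measured by a cell viability assay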
# Description: SANGER: Inhibition of human MHH-ES-1 cell growth in a cell viability assay.
# BPH-1 = assay type: functional, cell-based, Homo sapiens; conditions: Homo sapiens, BPH-1;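 also: cell viability assay measuring growth inhibition of human BPH-1 cells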
# Description: SANGER: Inhibition of human BPH-1 cell growth in a cell viability assay.
# BB30-HNC = assay type: functional, cell-based, Homo sapiens; conditions: Homo sapiens, BB30-HNC;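 also: growth inhibition of the cultured cell line, read out by a cell viability assay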
# Description: SANGER: Inhibition of human BB30-HNC cell growth in a cell viability assay.
# 769-P = assay type: functional, cell-based, Homo sapiens; conditions: Homo sapiens, 769-P
# Description: SANGER: Inhibition of human 769-P cell growth in a cell viability assay.
# VM-CUB-1 = assay type: functional, cell-based; conditions: Homo sapiens;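 also: cell viability assay measuring growth inhibition of the human VM-CUB-1 cell line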
# Description: SANGER: Inhibition of human VM-CUB-1 cell growth in a cell viability assay.
# LAN-6 = assay type: functional, cell-based, Homo sapiens; conditions: Homo sapiens, LAN-6;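 also: growth inhibition of LAN-6 cells, determined with a cell viability assay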
# Description: SANGER: Inhibition of human LAN-6 cell growth in a cell viability assay.
# NCI-H28 = assay type: functional, cell-based, Homo sapiens; conditions: Homo sapiens, NCI-H28;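 also: growth inhibition of human NCI-H28 cells, read out as cell viability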
# Description: SANGER: Inhibition of human NCI-H28 cell growth in a cell viability assay.
# LAMA-84 = assay type: functional, cell-based; conditions: Homo sapiens;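 also: growth inhibition of LAMA-84 cells, read out with a cell viability assay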
# Description: SANGER: Inhibition of human LAMA-84 cell growth in a cell viability assay.
# A-427 = assay type: functional, cell-based, Homo sapiens; conditions: Homo sapiens, A-427;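 also: growth inhibition of human A-427 cells, read out by a cell viability assay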
# Description: SANGER: Inhibition of human A427 cell growth in a cell viability assay.
# PC-14 = assay type: functional, cell-based, Homo sapiens; conditions: Homo sapiens, PC-14;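 also: cell viability assay measuring inhibition of PC-14 cell growth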
# Description: SANGER: Inhibition of human PC-14 cell growth in a cell viability assay.
# LN-405 = assay type: functional, cell-based, Homo sapiens; conditions: Homo sapiens, LN-405
# Description: SANGER: Inhibition of human LN-405 cell growth in a cell viability assay.
# CAL-12T = assay type: functional, cell-based, Homo sapiens; conditions: Homo sapiens, CAL-12T;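 also: growth inhibition of human CAL-12T cells, read out with a cell viability assay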
# Description: SANGER: Inhibition of human CAL-12T cell growth in a cell viability assay.
# SNU-C2B = assay type: functional, cell-based, Homo sapiens; conditions: Homo sapiens, SNU-C2B;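 also: cell viability readout used to measure compound-driven suppression of SNU-C2B cell proliferation, IC50 marking half-maximal growth inhibition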
# Description: SANGER: Inhibition of human SNU-C2B cell growth in a cell viability assay.
# C2BBe1 = assay type: functional, cell-based, Homo sapiens; conditions: Homo sapiens, C2BBe1;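 also: growth inhibition of C2BBe1 cells, read out through a viability assay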
# Description: SANGER: Inhibition of human C2BBe1 cell growth in a cell viability assay.
# GT3TKB = assay type: functional, cell-based, Homo sapiens; conditions: Homo sapiens, GT3TKB;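 also: growth inhibition of the cell line, read out with a cell viability assay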
# Description: SANGER: Inhibition of human GT3TKB cell growth in a cell viability assay.
# NCI-H2122 = assay type: functional, cell-based, Homo sapiens; conditions: Homo sapiens, NCI-H2122;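 also: growth inhibition of the cells, read out with a cell viability assay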
# Description: SANGER: Inhibition of human NCI-H2122 cell growth in a cell viability assay.
# BV-173 = assay type: functional, cell-based; conditions: Homo sapiens
# Description: SANGER: Inhibition of human BV-173 cell growth in a cell viability assay.
# LXF-289 cell line = assay type: functional, cell-based, Homo sapiens; conditions: Homo sapiens, LXF-289
# Description: SANGER: Inhibition of human LXF-289 cell growth in a cell viability assay.
# HD-MY-Z = assay type: functional, cell-based, Homo sapiens; conditions: Homo sapiens, HD-MY-Z;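 also: growth inhibition of HD-MY-Z cells, read out with a cell viability assay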
# Description: SANGER: Inhibition of human HD-MY-Z cell growth in a cell viability assay.
# NCI-H2170 = assay type: functional, cell-based, Homo sapiens; conditions: Homo sapiens, NCI-H2170;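 also: cell viability assay measuring growth inhibition of human NCI-H2170 cancer cells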
# Description: SANGER: Inhibition of human NCI-H2170 cell growth in a cell viability assay.
# SAOS-2 = assay type: functional, cell-based, Homo sapiens; conditions: Homo sapiens, SAOS-2;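 also: growth inhibition of human Saos-2 cells determined by a cell viability assay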
# Description: SANGER: Inhibition of human Saos-2 cell growth in a cell viability assay.
smiles,measurement,setting,value
CCOc1nc(NC(=O)Cc2cc(OC)ccc2OC)cc(N)c1C#N,IC50,A204,> 10 µM
same,IC50,CGTH-W-1,> 10 µM
same,IC50,DJM-1,> 10 µM
same,IC50,COR-L88,> 10 µM
same,IC50,CTB-1,> 10 µM
same,IC50,SK-PN-DW,> 10 µM
same,IC50,GAK,> 10 µM
same,IC50,HSC-2,> 10 µM
same,IC50,PANC-03-27,> 10 µM
same,IC50,J82,> 10 µM
same,IC50,HT-29,> 10 µM
same,IC50,RPMI-8866,> 10 µM
same,IC50,Calu-6,> 10 µM
same,IC50,KYSE-180,> 10 µM
same,IC50,NB13,> 10 µM
same,IC50,COLO-792,> 10 µM
same,IC50,J-RT3-T3-5,> 10 µM
same,IC50,TE-9,> 10 µM
same,IC50,LU-99A,> 10 µM
same,IC50,D-502MG,> 10 µM
same,IC50,BHT-101,> 10 µM
same,IC50,KNS-42,> 10 µM
same,IC50,SK-MEL-28,> 10 µM
same,IC50,COLO-678,> 10 µM
same,IC50,SHP77,> 10 µM
same,IC50,CP50-MEL-B,> 10 µM
same,IC50,YKG-1,> 10 µM
same,IC50,TK-10,> 10 µM
same,IC50,NCI-H1623,> 10 µM
same,IC50,COLO-680N,> 10 µM
same,IC50,MHH-ES-1,> 10 µM
same,IC50,BPH-1,> 10 µM
same,IC50,BB30-HNC,> 10 µM
same,IC50,769-P,> 10 µM
same,IC50,VM-CUB-1,> 10 µM
same,IC50,LAN-6,> 10 µM
same,IC50,NCI-H28,> 10 µM
same,IC50,LAMA-84,> 10 µM
same,IC50,A-427,> 10 µM
same,IC50,PC-14,> 10 µM
same,IC50,LN-405,> 10 µM
same,IC50,CAL-12T,> 10 µM
same,IC50,SNU-C2B,> 10 µM
same,IC50,C2BBe1,> 10 µM
same,IC50,GT3TKB,> 10 µM
same,IC50,NCI-H2122,> 10 µM
same,IC50,BV-173,> 10 µM
same,IC50,LXF-289 cell line,> 10 µM
same,IC50,HD-MY-Z,> 10 µM
same,IC50,NCI-H2170,> 10 µM
same,IC50,SAOS-2,> 10 µM
CC(=O)O[C@@H]1[C@@H](OC(C)=O)[C@@H](O)[C@H](Oc2c(-c3ccc(O)cc3)oc3cc(O)cc(O)c3c2=O)O[C@H]1C,IC50,A204,> 10 µM
same,IC50,CGTH-W-1,> 10 µM
same,IC50,DJM-1,> 10 µM
same,IC50,COR-L88,> 10 µM
same,IC50,CTB-1,7.32 µM
same,IC50,SK-PN-DW,> 10 µM
same,IC50,GAK,> 10 µM
same,IC50,HSC-2,> 10 µM
same,IC50,PANC-03-27,> 10 µM
same,IC50,J82,> 10 µM
same,IC50,HT-29,> 10 µM
same,IC50,RPMI-8866,> 10 µM
same,IC50,Calu-6,> 10 µM
same,IC50,KYSE-180,> 10 µM
same,IC50,NB13,> 10 µM
same,IC50,COLO-792,> 10 µM
same,IC50,J-RT3-T3-5,> 10 µM
same,IC50,TE-9,> 10 µM
same,IC50,LU-99A,> 10 µM
same,IC50,D-502MG,> 10 µM
same,IC50,BHT-101,> 10 µM
same,IC50,KNS-42,> 10 µM
same,IC50,SK-MEL-28,> 10 µM
same,IC50,COLO-678,> 10 µM
same,IC50,SHP77,> 10 µM
same,IC50,CP50-MEL-B,> 10 µM
same,IC50,YKG-1,> 10 µM
same,IC50,TK-10,> 10 µM
same,IC50,NCI-H1623,> 10 µM
same,IC50,COLO-680N,> 10 µM
same,IC50,MHH-ES-1,> 10 µM
same,IC50,BPH-1,> 10 µM
same,IC50,BB30-HNC,> 10 µM
same,IC50,769-P,> 10 µM
same,IC50,VM-CUB-1,> 10 µM
same,IC50,LAN-6,> 10 µM
same,IC50,NCI-H28,> 10 µM
same,IC50,LAMA-84,> 10 µM
same,IC50,A-427,> 10 µM
same,IC50,PC-14,> 10 µM
same,IC50,LN-405,> 10 µM
same,IC50,CAL-12T,> 10 µM
same,IC50,SNU-C2B,> 10 µM
same,IC50,C2BBe1,> 10 µM
same,IC50,GT3TKB,> 10 µM
same,IC50,NCI-H2122,> 10 µM
same,IC50,BV-173,3.01 µM
same,IC50,LXF-289 cell line,> 10 µM
same,IC50,HD-MY-Z,> 10 µM
same,IC50,NCI-H2170,> 10 µM
same,IC50,SAOS-2,> 10 µM
COc1cc(F)c(F)c(Nc2ccc(I)cc2F)c1NS(=O)(=O)C1(CC(O)CO)CC1 (stereo not drawn),IC50,A204,> 5 µM
same,IC50,CGTH-W-1,2.73 µM
same,IC50,DJM-1,> 5 µM
same,IC50,COR-L88,> 5 µM
same,IC50,CTB-1,> 5 µM
same,IC50,SK-PN-DW,> 5 µM
same,IC50,GAK,0.565 µM
same,IC50,HSC-2,> 5 µM
same,IC50,PANC-03-27,0.768 µM
same,IC50,J82,> 5 µM
same,IC50,HT-29,0.182 µM
same,IC50,RPMI-8866,> 5 µM
same,IC50,Calu-6,> 5 µM
same,IC50,KYSE-180,> 5 µM
same,IC50,NB13,> 5 µM
same,IC50,COLO-792,0.761 µM
same,IC50,J-RT3-T3-5,> 5 µM
same,IC50,TE-9,> 5 µM
same,IC50,LU-99A,3.96 µM
same,IC50,D-502MG,3.81 µM
same,IC50,BHT-101,0.106 µM
same,IC50,KNS-42,> 5 µM
same,IC50,SK-MEL-28,0.115 µM
same,IC50,COLO-678,2.11 µM
same,IC50,SHP77,> 5 µM
same,IC50,CP50-MEL-B,0.0215 µM
same,IC50,YKG-1,0.938 µM
same,IC50,TK-10,2.21 µM
same,IC50,NCI-H1623,1.78 µM
same,IC50,COLO-680N,> 5 µM
same,IC50,MHH-ES-1,> 5 µM
same,IC50,BPH-1,0.135 µM
same,IC50,BB30-HNC,1.58 µM
same,IC50,769-P,> 5 µM
same,IC50,VM-CUB-1,3.65 µM
same,IC50,LAN-6,0.521 µM
same,IC50,NCI-H28,> 5 µM
same,IC50,LAMA-84,0.318 µM
same,IC50,A-427,4.46 µM
same,IC50,PC-14,4.17 µM
same,IC50,LN-405,> 5 µM
same,IC50,CAL-12T,1.07 µM
same,IC50,SNU-C2B,> 5 µM
same,IC50,C2BBe1,0.559 µM
same,IC50,GT3TKB,> 5 µM
same,IC50,NCI-H2122,2.17 µM
same,IC50,BV-173,2.38 µM
same,IC50,LXF-289 cell line,3.54 µM
same,IC50,HD-MY-Z,0.886 µM
same,IC50,NCI-H2170,> 5 µM
same,IC50,SAOS-2,> 5 µM
